Assay results taken from patent US8999973B2, “Thieno[3,2-d]pyrimidine derivatives having inhibitory activity on protein kinases” (Hanmi Science Co., Ltd, priority 2010, dated 2015).
Residue numbers refer to the chain shown, from its start. pIC50: −log10 of the molar value.

What was measured:
[1] = target: T1, Bcr-Abl^T315I (Homo sapiens, UniProt P00519, T315I); test: Kinase activation assay (IC50), fluorescence polarization tyrosine kinase assay kit; format: biochemical; conditions: T315I mutation kinase domain (Millipore), Poly (Glu, Tyr) 4:1 substrate, FP readout
T1 construct: purchased Millipore
T1 sequence (P00519 242-493 T315I limits assumed): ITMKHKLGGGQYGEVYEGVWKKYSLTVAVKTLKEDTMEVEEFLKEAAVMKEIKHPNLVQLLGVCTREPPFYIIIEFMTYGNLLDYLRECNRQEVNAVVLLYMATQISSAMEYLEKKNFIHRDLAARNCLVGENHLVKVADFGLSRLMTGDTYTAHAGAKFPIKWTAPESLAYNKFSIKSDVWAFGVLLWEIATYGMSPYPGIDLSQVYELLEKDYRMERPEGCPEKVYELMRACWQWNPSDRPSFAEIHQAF
Description: (§1) Test 1: Kinase Activation Assay (IC50)
(§2) A kinase domain (Millipore) comprising the entire cytoplasmic sequences of Bcr-Abl^wt and Bcr-Abl^T315I mutation kinases and a tyrosine kinase assay kit (Panvera, P2837) were used to measure an inhibitory activation on Bcr-abl. Other kinases such as FGFR, Flt, KDR, PDGFR, Fms, Kit, Raf, Tie2, Src, and Ret were also measured by the same method. In order to prepare a sample, the each compound obtained in Examples 1 to 128 was diluted 10 times with a kinase buffer to a concentration of 10˜0.0001 μM.
(§3) The each kinase was diluted with a kinase buffer to a concentration of 30˜300 ng/assay by using the each Kd value. The kinase buffer consisted of 100 mM HEPES (PH 7.4), 25 mM MgCl2, 10 mM MnCl2, and 250 μM Na3VO4, being kept refrigerated after filtered.
(§4) The test was conducted in 96 well polystyrene round bottom plates. First, 10 μL of the diluted sample was combined with 10 μL of the enzyme solution at room temperature for 10 minutes using a shaker. 10 μL of Poly (Glu, Tyr) 4:1 (Sigma) matrix solution in an appropriate concentration and 10 μL of ATP solution (5˜300 μM) were added to the sample and subjected to a reaction at room temperature for 60 minutes in a shaker. After 60 minutes, an EDTA solution was added thereto to complete the kinase reaction and the reaction mixture was left in a shaker for 5 minutes at room temperature. A tracer, an antibody, and a fluorescence polarization (FP) diluted reaction solution were mixed at a ratio of 1:1:3 to prepare a detecting solution, 50 μL of which was added to the each sample and subjected to a reaction at room temperature for 30 minutes in a shaker. As fluorescing, light was blocked out and the FP value was measured using a FP instrument (excitation wavelength: 485 nm, and emission wavelength: 530 nm).
(§5) And the inhibition on kinase reaction was calculated for the sample in the range of 0˜100% as compared to the control group, and the concentration on x-axis at 50% inhibition was obtained as an inhibitory concentration (IC50) value.
(§6) 50% inhibitory concentration (IC50) Y=bottom+(top−bottom)/(1+10exp(X−log IC50)

[2] = target: T2, Bcr-Abl^wt (Homo sapiens, UniProt P00519); test: as above; format: biochemical; conditions: kinase domain (Millipore), Poly (Glu, Tyr) 4:1 substrate, FP readout
T2 construct: purchased Millipore
T2 sequence (P00519 242-493 limits assumed): T1 sequence (P00519 242-493 T315I limits assumed) with I74T
Description: as §1, §2, §3, §4, §5, §6

pIC50 [1]	pIC50 [2]	SMILES
7.00 to 9.00	7.00 to 9.00	CCN1CCN(Cc2ccc(C(=O)Nc3ccc(C)c(NC(=O)c4csc5c(N)ncnc45)c3)cc2C(F)(F)F)CC1 [Example 49, 4-amino-N-(5-(4-((4-ethylpiperazine-1-yl)methyl)-3-(trifluoromethyl)benzamido)-2-methylphenyl)thieno[3,2-d]pyrimidine-7-carboxamide]
5.00 to 6.00	7.00 to 9.00	Cc1ccc(C(=O)Nc2ccc(N3CCOCC3)nc2)cc1NC(=O)c1csc2c(NC3CC3)ncnc12 [Example 29, 4-(cyclopropylamino)-N-(2-methyl-5-(6-morpholinopyridine-3-ylcarbamoyl)phenyl)thieno[3,2-d]pyrimidine-7-carboxamide]
5.00 to 6.00	7.00 to 9.00	CC(=O)OCc1ccc(NC(=O)c2ccc(C)c(NC(=O)c3csc4c(NC5CC5)ncnc34)c2)cc1C(F)(F)F [Example 23, 4-(3-(4-(cyclopropylamino)thieno[3,2-d]pyrimidine-7-carboxamido)-4-methylbenzamido)-2-(trifluoromethyl)benzyl acetate]
5.00 to 6.00	5.00 to 6.00	Cc1cc(C(=O)Nc2ccc(C)c(NC(=O)c3csc4c(N)ncnc34)c2)n(Cc2ccc(F)cc2)n1 [Example 68, 4-amino-N-(5-(1-(4-fluorobenzyl)-3-methyl-1H-pyrazole-5-carboxyamido)-2-methylphenyl)thieno[3,2-d]pyrimidine-7-carboxamide]
7.00 to 9.00	7.00 to 9.00	Cc1ccc(C(=O)Nc2ccc(CO)c(C(F)(F)F)c2)cc1NC(=O)c1csc2c(NC3CC3)ncnc12 [Example 24, 4-(cyclopropylamino)-N-(5-(4-(hydroxymethyl)-3-(trifluoromethyl)phenylcarbamoyl)-2-methylphenyl)thieno[3,2-d]pyrimidine-7-carboxamide]
5.00 to 6.00	6.00 to 7.00	COc1cc(C(=O)Nc2ccc(C)c(NC(=O)c3csc4c(N)ncnc34)c2)nc2ccccc12 [Example 56, 4-amino-N-(5-(4-methoxyquinoline-2-carboxyamido)-2-methylphenyl)thieno[3,2-d]pyrimidine-7-carboxamide]
5.00 to 6.00	7.00 to 9.00	CCN1CCN(c2cc(NC(=O)c3ccc(C)c(/C=C/c4csc5c(N)ncnc45)c3)cc(C(F)(F)F)c2)CC1 [Example 3, (E)-3-(2-(4-aminothieno[3,2-d]pyrimidine-7-yl)vinyl)-N-(3-(4-ethylpiperazine-1-yl)-5-(trifluoromethyl)phenyl)-4-methylbenzamide]

More lines, now with the values behind:

SMILES	pIC50 [1]	pIC50 [2]
CCN1CCN(Cc2ccc(C(=O)Nc3ccc(C)c(/C=C/c4csc5c(N)ncnc45)c3)cc2C(F)(F)F)CC1 [Example 7, (E)-N-(3-(2-(4-aminothieno[3,2-d]pyrimidine-7-yl)vinyl)-4-methylphenyl)-4-((4-ethylpiperazin-1-yl)methyl)-3-(trifluoromethyl)benzamide]	6.00 to 7.00	7.00 to 9.00
Cc1ccc(NC(=O)c2cc(NC3CCN(C)CC3)cc(C(F)(F)F)c2)cc1NC(=O)c1csc2c(NC3CC3)ncnc12 [Example 116, 4-(cyclopropylamino)-N-(2-methyl-5-(3-(1-methylpiperidine-4-ylamino)-5-(trifluoromethyl)benzoamido)phenyl)thieno[3,2-d]pyrimidine-7-carboxamide]	7.00 to 9.00	7.00 to 9.00
Cc1ccc(NC(=O)c2cc(N3CCCN(C)CC3)cc(C(F)(F)F)c2)cc1NC(=O)c1csc2c(NC3CC3)ncnc12 [Example 93, 4-(cyclopropylamino)-N-(2-methyl-5-(3-(4-methyl-1,4-diazepan-1-yl)-5-(trifluoromethyl)benzoamido)phenyl)thieno[3,2-d]pyrimidine-7-carboxamide]	7.00 to 9.00	7.00 to 9.00
Cc1ccc(NC(=O)c2cc(NCCCN(C)C)cc(C(F)(F)F)c2)cc1NC(=O)c1csc2c(NC3CC3)ncnc12 [Example 41, 4-(cyclopropylamino)-N-(5-(3-(3-(dimethylamino)propylamino)-5-(trifluoromethyl)benzamido)-2-methylphenyl)thieno[3,2-d]pyrimidine-7-carboxamide]	7.00 to 9.00	7.00 to 9.00
CCN1CCN(c2cc(C(=O)Nc3ccc(C)c(NC(=O)c4csc5c(NC6CC6)ncnc45)c3)cc(C(F)(F)F)c2)CC1 [Example 110, 4-(cyclopropylamino)-N-(5-(3-(4-ethylpiperazin-1-yl)-5-(trifluoromethyl)benzoamido)-2-methylphenyl)thieno[3,2-d]pyrimidine-7-carboxamide]	6.00 to 7.00	7.00 to 9.00
COc1cc(OC)cc(C(=O)Nc2ccc(C)c(NC(=O)c3csc4c(N)ncnc34)c2)c1 [Example 43, 4-amino-N-(5-(3,5-dimethoxybenzamido)-2-methylphenyl)thieno[3,2-d]pyrimidine-7-carboxamide]	6.00 to 7.00	7.00 to 9.00
Cc1cn(-c2cc(NC(=O)c3ccc(C)c(NC(=O)c4csc5c(NC6CC6)ncnc45)c3)cc(C(F)(F)F)c2)c(C)n1 [Example 31, 4-(cyclopropylamino)-N-(5-(3-(2,4-dimethyl-1H-imidazole-1-yl)-5-(trifluoromethyl)phenylcarbamoyl)-2-methylphenyl)thieno[3,2-d]pyrimidine-7-carboxamide]	7.00 to 9.00	7.00 to 9.00
CCN1CCN(c2ccc(NC(=O)c3ccc(C)c(NC(=O)c4csc5c(NC6CC6)ncnc45)c3)cn2)CC1 [Example 30, 4-(cyclopropylamino)-N-(5-(6-(4-ethylpiperazine-1-yl)pyridine-3-ylcarbamoyl)-2-methylphenyl)thieno[3,2-d]pyrimidine-7-carboxamide]	5.00 to 6.00	5.00 to 6.00
Cc1ccc(C(=O)Nc2cccc(C(F)(F)F)c2)cc1NC(=O)c1csc2c(NC(C)C)ncnc12 [Example 17, 4-(isopropylamino)-N-(2-methyl-5-(3-(trifluoromethyl)phenylcarbamoyl)phenyl)thieno[3,2-d]pyrimidine-7-carboxamide]	5.00 to 6.00	7.00 to 9.00
COc1cc(Nc2ncnc3c(C(=O)Nc4cc(C(=O)Nc5cccc(C(F)(F)F)c5)ccc4C)csc23)cc(OC)c1OC [Example 14, N-(2-methyl-5-(3-(trifluoromethyl)phenylcarbamoyl)phenyl)-4-(3,4,5-trimethoxyphenylamino)thieno[3,2-d]pyrimidine-7-carboxamide]	5.00 to 6.00	6.00 to 7.00
Cc1ccc(NC(=O)c2cc(-n3ccnc3C)cc(C(F)(F)F)c2)cc1NC(=O)c1csc2c(N)ncnc12 [Example 61, 4-amino-N-(2-methyl-5-(3-(2-methyl-1H-imidazole-1-yl)-5-(trifluoromethyl)benzamido)phenyl)thieno[3,2-d]pyrimidine-7-carboxamide]	7.00 to 9.00	7.00 to 9.00
Cc1ccc(NC(=O)c2cccc(C(F)(F)F)c2)cc1NC(=O)c1csc2c(NC3CCCC3)ncnc12 [Example 71, 4-(cyclopentylamino)-N-(2-methyl-5-(3-(trifluoromethyl)benzamido)phenyl)thieno[3,2-d]pyrimidine-7-carboxamide]	5.00 to 6.00	7.00 to 9.00
COc1ccc(C(=O)Nc2cc(-n3cnc(C)c3)cc(C(F)(F)F)c2)cc1NC(=O)c1csc2c(NC3CC3)ncnc12 [Example 36, 4-(cyclopropylamino)-N-(2-methoxy-5-(3-(4-methyl-1H-imidazole-1-yl)-5-(trifluoromethyl)phenylcarbamoyl)phenyl)thieno[3,2-d]pyrimidine-7-carboxamide]	5.00 to 6.00	7.00 to 9.00
CN(C)[C@H]1CCN(c2cc(C(=O)Nc3ccc(F)c(NC(=O)c4csc5c(NC6CC6)ncnc45)c3)cc(C(F)(F)F)c2)C1 [Example 107, (S)-4-(cyclopropylamino)-N-(5-(3-(3-(dimethylamino)pyrrolidine-1-yl)-5-(trifluoromethyl)benzoamido)-2-fluorophenyl)thieno[3,2-d]pyrimidine-7-carboxamide]	6.00 to 7.00	7.00 to 9.00
